Experimental findings from ChEMBL document CHEMBL4229478, “Synthesis, Characterization, and Biological Evaluation of a Porphyrin-Based Photosensitizer and Its Isomer for Effective Photodynamic Therapy against Breast Cancer” (J Med Chem, 2018) are described below.

Calls of active or inactive are those of the source. No cut-off for these calls is given here.

In series [1] the test system is MDA-MB-231. As to the kind of experiment: Induction of ROS generation in human MDA-MB-231 cells incubated with DCF-DA probe for 30 mins followed by 2 J/cm2 light irradiation and measured after 1 hr by flow cytometric analysis (reference value: 5.81%). The class given is functional.
In series [2] the test system is Mus musculus. Nature of the series: Hepatotoxicity in BALB/c mouse xenografted with mouse 4T1 cells assessed as pathological changes in liver at 1 to 4 mg/kg, iv pre-tretaed for 24 hrs followed by 50 J/cm2 light irradiation and measured at day 22 post dose by hematoxylin and eosin staining based light microscopic analysis. The class given is toxicity, organism-based. To be noted: in vivo.

A short description of series [3]: Drug uptake in lung of BALB/c mouse xenografted with mouse 4T1 cells at 10 mg/kg, iv measured at 12 hrs post injection by IVIS spectrum imaging. The format is ADME, organism-based. To be noted: in vivo.
Series [4] has as its system MDA-MB-231. As to the kind of experiment: Phototoxicity against human MDA-MB-231 cells assessed as cell viability at 0.5 uM preincubated for 4 hrs followed by 0.5 to 2 J/cm2 light irradiation and measured after 24 hrs by MTT assay. The format is functional, cell-based. For orientation: Formazan colour is commonly taken as a measure of viable cells.
The test system of series [5] is MDA-MB-231. Nature of the series: Induction of apoptosis in human MDA-MB-231 cells assessed as early apoptotic cells after 24 hrs by Annexin-V FITC/propidium iodide staining based flow cytometric analysis (reference value: 1.22%). The format is cell-based. To be noted: mda-mb-231, 24 h. In general terms: Flow cytometry measures light scatter and fluorescence of single cells or particles in a stream.

A short description of series [6]: Dark toxicity against mouse 4T1 cells assessed as cell viability at 0.5 uM after 24 hrs by MTT assay. The class given is cell-based. To be noted: 4t1, 24 h.
A short description of series [7]: Drug uptake in tumor of BALB/c mouse xenografted with mouse 4T1 cells at 10 mg/kg, iv measured up to 3 to 24 hrs post injection by fluorescence assay. The class given is ADME, organism-based, Neoplasm. To be noted: in vivo.
For series [8], the system named is MDA-MB-231. As to the kind of experiment: Induction of ROS generation in human MDA-MB-231 cells incubated with DCF-DA probe for 30 mins by flow cytometric analysis (reference value: 5.81%). The class given is cell-based. To be noted: mda-mb-231, 0.5 h.
In series [9] the test system is 4T1. Nature of the series: Antitumor activity against mouse 4T1 cells xenografted in BALB/c mouse assessed as inhibition of tumor volume at 4 mg/kg, iv pretreated for 24 hrs followed by 50 J/cm2 light irradiation and measured at day 22 post dose relative to control. The class given is functional. To be noted: 4T1, light or radiation study.
Series [10] relates to 4T1. As to the kind of experiment: Antitumor activity against mouse 4T1 cells xenografted in BALB/c mouse assessed as induction of tissue destruction with large spaces at 4 mg/kg, iv pretreated for 24 hrs followed by 50 J/cm2 light irradiation by hematoxylin and eosin staining based light microscopic analysis. The format is functional, organism-based.
Series [11] has as its system 4T1. As to the kind of experiment: Antitumor activity against mouse 4T1 cells xenografted in BALB/c mouse assessed as inhibition of tumor weight at 1 to 4 mg/kg, iv pretreated for 24 hrs followed by 50 J/cm2 light irradiation and measured at day 22 post last dose. The class given is functional, organism-based.
The test system of series [12] is 4T1. As to the kind of experiment: Antitumor activity against mouse 4T1 cells xenografted in BALB/c mouse assessed as inhibition of tumor volume at 2 mg/kg, iv pretreated for 24 hrs followed by 50 J/cm2 light irradiation and measured at day 22 post dose relative to control. The class given is functional. To be noted: 4T1, light or radiation study.
The subject of series [13] is Mus musculus. As to the kind of experiment: Toxicity in BALB/c mouse xenografted with mouse 4T1 cells assessed as effect on body weight at 1 mg/kg, iv pre-tretaed for 24 hrs followed by 50 J/cm2 light irradiation and measured at day 22 post dose. To be noted: in vivo. The format is organism-based.
The nature of series [14]: Dark toxicity against human MCF7 cells assessed as cell viability at 0.5 uM after 24 hrs by MTT assay. The class given is cell-based. To be noted: mcf7, 24 h.
Series [15] concerns Mus musculus. As to the kind of experiment: Toxicity in BALB/c mouse xenografted with mouse 4T1 cells assessed as pathological changes in spleen at 4 mg/kg, iv measured at day 22 post dose by hematoxylin and eosin staining based light microscopic analysis. The class given is organism-based. To be noted: in vivo.
In series [16] the test system is MDA-MB-231. As to the kind of experiment: Induction of apoptosis in human MDA-MB-231 cells assessed as early apoptotic cells after 24 hrs upon light irradiation by Annexin-V FITC/propidium iodide staining based flow cytometric analysis (reference value: 1.22%). The class given is functional.
The test system of series [17] is 4T1. As to the kind of experiment: Phototoxicity against mouse 4T1 cells assessed as cell viability at 0.5 uM preincubated for 4 hrs followed by 0.5 J/cm2 light irradiation and measured after 24 hrs by MTT assay relative to control. The format is functional. To be noted: 4T1, light or radiation study, read-out: Activity.
In series [18] the test system is Mus musculus. As to the kind of experiment: Toxicity in BALB/c mouse xenografted with mouse 4T1 cells assessed as pathological changes in lung at 4 mg/kg, iv measured at day 22 post dose by hematoxylin and eosin staining based light microscopic analysis. The class given is organism-based. To be noted: in vivo.
Series [19] has as its system Mus musculus. As to the kind of experiment: Toxicity in BALB/c mouse xenografted with mouse 4T1 cells assessed as pathological changes in lung at 1 to 4 mg/kg, iv pre-tretaed for 24 hrs followed by 50 J/cm2 light irradiation and measured at day 22 post dose by hematoxylin and eosin staining based light microscopic analysis. The class given is organism-based. To be noted: in vivo.

Series [20] is described as follows: Induction of apoptosis in human MDA-MB-231 cells assessed as viable cells after 24 hrs by Annexin-V FITC/propidium iodide staining based flow cytometric analysis (reference value: 93.27%). To be noted: read-out: Activity. The class given is cell-based.
Series [21] is described as follows: Selectivity index, ratio of dark toxicity against human MDA-MB-231 cells at 0.5 uM to phototoxicity against human MDA-MB-231 cells at 0.5 uM. The class given is cell-based. To be noted: read-out: Selectivity Index.
Series [22] can be described thus: Drug uptake in tumor of BALB/c mouse xenografted with mouse 4T1 cells at 10 mg/kg, iv measured at 12 hrs post injection by IVIS spectrum imaging. To be noted: in vivo. The format is ADME, organism-based, Neoplasm.
The test system of series [23] is MCF7. As to the kind of experiment: Phototoxicity against human MCF7 cells assessed as cell viability at 0.5 uM preincubated for 4 hrs followed by 0.5 to 2 J/cm2 light irradiation and measured after 24 hrs by MTT assay. The class given is functional, cell-based.
Series [24] relates to 4T1. As to the kind of experiment: Antitumor activity against mouse 4T1 cells xenografted in BALB/c mouse at 4 mg/kg, iv preincubated for 24 hrs and measured at day 22 post dose. The format is functional, organism-based.
Series [25] has as its system MDA-MB-231. As to the kind of experiment: Induction of ROS generation in human MDA-MB-231 cells incubated with DCF-DA probe for 30 mins followed by 2 J/cm2 light irradiation and measured after 1 hr by flow cytometric analysis (reference value: 2.1%). The format is functional.
Series [26] relates to MDA-MB-231. As to the kind of experiment: Induction of ROS generation in human MDA-MB-231 cells incubated with DCF-DA probe for 30 mins by flow cytometric analysis (reference value: 2.1%). The format is cell-based. To be noted: mda-mb-231, 0.5 h.

By inhibition in vivo is commonly meant the relative decrease from the control value, in per cent. Take `C=Cc1c(C)c2cc3nc(cc4[nH]c(cc5nc(cc1[nH]2)C(C)=C5C(C)OCCCCCC)c(C)c4CCC(=O)[O-])C(CCC(=O)[O-])=C3C.[Na+].[Na+]` (configuration not stated): the Activity is reported as 87.84% in series [1]; “Non-Toxic” in series [2]; 3.72% in series [5]; “Non-Toxic” in [6]; 6.34% in series [8]; “Non-Toxic” in series [13]. In addition, the Activity result is given as “Non-Toxic” in [14]; “Non-Toxic” in series [15]; 3.82% in [16]; “Non-Toxic” in [18]; “Non-Toxic” in [19]. For the same molecule, the Drug uptake result in [3] was “Not Active”; in series [7] it was “Active”; in series [22], “Active”. Besides, the outcome in series [4], in [10] and in series [23] was Active. In addition, the inhibition in vivo at 4 mg/kg in series [9] worked out at 65.4%. Further, the inhibition entry in [11] was “Active”. In series [12], the inhibition in vivo at 2 mg/kg is 43%. Moreover, the viability at 0.5 µM in series [17] came out at 86.4%. Moreover, the viability at 24 h in series [20] came to 93.4%. In [21], the selectivity ratio at 0.5 µM worked out at 161.
As for `C=CC1=C(C)c2cc3[nH]c(cc4nc(cc5[nH]c(cc1n2)c(C)c5CCC(=O)[O-])C(CCC(=O)[O-])=C4C)c(C)c3C(C)OCCCCCC.[Na+].[Na+]` (configuration not stated), the Activity entry is on record as “Non-Toxic” in series [2]; 4.02% in series [5]; “Non-Toxic” in series [6]; 46.7% in series [25]; “Non-Toxic” in series [13]; “Non-Toxic” in series [14]. Further, the Activity entry in series [15] was “Non-Toxic”; in series [16], 7.17%; in series [26] it was 2.21%; in series [18], “Non-Toxic”; in series [19], “Non-Toxic”. For the same molecule, the values for the Drug uptake entry in series [3], in series [7] and in series [22] were “Not Active”, “Active” and “Active”, respectively. Moreover, the result in series [4], in series [10] and in [23] was Active. Further, the outcome in [24] was inactive. Moreover, the inhibition in vivo at 4 mg/kg in series [9] is 45.4%. The inhibition entry in series [11] was “Active”. Besides, the inhibition in vivo at 2 mg/kg in series [12] was found to be 28%. Also, the viability at 0.5 µM in series [17] worked out at 98%. In addition, in series [20], the viability at 24 h is 92.8%. Further, in series [21], the selectivity ratio at 0.5 µM is 59.6.
